Consider two compounds from patent US20170096443A1, “PLATINUM(IV) COMPOUNDS AND METHODS OF MAKING AND USING SAME” (UNIVERSITY OF GEORGIA RESEARCH FOUNDATION, INC., priority 2014, published 2017).

The test system of one experiment is DU145 cells. Briefly: MTT cytotoxicity assay in DU145 cells. It counts as cell-based, Human. The settings on record: 72 hours incubation, read-out: IC50 in prostate cancer cells, DU145. As for the experimental part: (§1) Cisplatin and ADIBO-COOH were used as controls. […] Cell Lines and Cell Culture. […] Cytotoxicity Analysis of Platin-CLK by MTT Assay. […] The media was changed and increasing concentrations of each compound was added. […] Final working solutions were prepared in culture media (RPMI) by keeping total DMSO percentage <1%. These were then incubated for 72 hours. […] The IC50 values were reported at ±99% confidence intervals.
In general terms: Formazan colour is commonly taken as a measure of viable cells.

For the next experiment, the system named is PC3 cells. Briefly: MTT cytotoxicity assay in PC3 cells. It counts as cell-based, Human. Particulars: 72 hours incubation, read-out: IC50 in prostate cancer cells, PC3. As for the experimental part: as §1

Take `O=C(O)CCC(=O)NCCC(=O)N1Cc2ccccc2C#Cc2ccccc21` [ADIBO-COOH]: the figures for the half-inhibitory concentration (IC50) with DU145 cells and in the experiment with PC3 cells were 284 ± 72 µM and above 200 µM, respectively.
In the same order, the values of `N.N.[Cl][Pt][Cl]` [Cisplatin, Cis-diamminedichloroplatinum(II)] are 6 ± 0.9 µM and 12 ± 2 µM.

The term IC50 denotes the concentration that inhibits the measured activity by half.
